From patent US20170231931A1, “PRODUCTS FOR THE TREATMENT AND PREVENTION OF NEUROLOGICAL DISORDERS COURSING WITH A COGNITION DEFICIT OR IMPAIRMENT, AND OF NEURODEGENERATIVE DISEASES” (FUNDACIÓN PARA LA INVESTIGACIÓN MÉDICA APLICADA, priority 2014, published 2017)

Columns and labels:
[1] = system: acetylated histone 3 at Lys9 (AcH3K9); assay: HDAC activity in wild type neurons: Western blot of acetylated histone 3 (AcH3K9) in primary neuronal cultures; assay type: cell-based, mice; details: 2 h
Protocol: (§1) The cellular assay to determine HDAC activity was assessed by Western blot analysis using a specific antibody against acetylated histone 3 at Lys9 (AcH3K9, Cell Signalling).
Primary neuronal cultures derived from the hippocampus and cortex of embryonic day 16 of wild type mice were used. Tissue was triturated using glass pipettes until neurons were dissociated. Neurons were plated with serum-free neurobasal media with B27 supplement (Invitrogen, Gaithersburg, Md.) and 2 mM L-glutamine on poly-L-lysine-treated (0.1 mg/ml; Sigma) 35 mm dishes.
To determine the concentration-response curve effect of Vorinostat and Tadalafil, cell cultures of 15 days in vitro were treated at different concentrations (10, 100 and 500 nM) during 2 h (Table 5).
Thus, to determine if a synergistic effect on epigenetic mark (AcH3) exists when both compounds are combined, Vorinostat at 50 nM was combined with Tadalafil at different concentrations (12.5, 25, 50, 100 and 200 nM) during 2 h (Table 6).
(§2) Cells were collected in a buffer containing a cold lysis buffer with protease inhibitors (0.2 M NaCl, 0.1 M HEPES (4-(2-hydroxyethyl)-1-piperazineethanesulfonic acid), 10% glycerol, 200 mM NaF, 2 mM Na4P2O7, 5 mM EDTA (ethylenediaminetetraacetic acid), 1 mM EGTA (ethylene glycol tetraacetic acid), 2 mM DTT (dithiothreitol), 0.5 mM PMSF (phenylmethylsulfonyl fluoride), 1 mM Na3VO4 and Complete Protease Inhibitor Cocktail, Roche Diagnostics), centrifuged at 14,000×g 4° C. for 20 min and the supernatant was aliquoted and stored at −80° C. Total protein concentrations were determined using the BioRad Bradford protein assay (BioRad Laboratories).
Protein samples were mixed with Laemmli sample buffer, resolved onto SDS-polyacrylamide gels and transferred to nitrocellulose membrane. The membranes were blocked with 5% milk, 0.05% Tween-20 in PBS (Phosphate-Buffered Saline) or TBS (Tris-Buffered Saline) followed by overnight incubation with the following primary antibodies: rabbit polyclonal anti-acetylated Histone 3 (acetyl K9, Cell Signalling 1:1000), mouse monoclonal anti-actin (Sigma, 1:50000) in the corresponding buffer. Following two washes in TBS/Tween20 and one wash in TBS alone, immunolabeled protein bands were detected by using HRP-conjugated anti-rabbit or anti-mouse antibody (Santa Cruz; dilution 1:5000) following an enhanced chemiluminescence system (ECL, GE Healthcare Bioscience, Buckinghamshire, UK), and autoradiographic exposure to HyperfilmtECL (GE Healthcare Bioscience). Quantity One™ software v.4.6.3 (Bio-Rad) was used for quantification.

[2] = system: acetylated histone 3 at Lys9 (AcH3K9); assay: HDAC activity in SHSY-5Y: Western blot of acetylated histone 3 (AcH3K9); assay type: cell-based, human; details: Vorinostat 10 nM alone, 2 hours, SHSY-5Y cell line
Protocol: as §1
A human neuroblastoma cell line (SHSY-5Y) was also used. Cell line was obtained from ATCC (CRL-2266) (Biedler et al., Cancer Research, 38, 3751-3757 1978) and cultured in 35 mm plates (Becton Dickinson, N.J.). The cells were grown to 90% confluence at 37° C. in an atmosphere of 5% CO2 and in Dulbecco's modified Eagle's medium supplemented with Glutamax (Gibco, Invitrogen, CA), 100 units/ml penicillin/streptomycin, 1× Minimum Essential Media (MEM) non essential amino acids and 10% fetal bovine serum (Gibco, Invitrogen, CA).
as §2, with “Laboratories). […]” for “Laboratories).”

[3] = system: Tg2576 mice; assay: Reversal MWM after a 4-weeks wash-out period in aged-Tg2576 mice; assay type: in vivo; details: Retention phase of Reversal_MWM test, day 6th, after 4-weeks wash-out, Vorinostat 12.5 mg/Kg, Tadalafil 1 mg/Kg, mean ± standard deviation
Protocol: (§3) The effect on memory function of Vorinostat (12.5 mg/kg, i.p.), Tadalafil (1 mg/Kg p.o.) and the combination (Vorinostat, 12.5 mg/Kg+Tadalafil 1 mg/Kg) was studied in Tg2576 mice (14-16 month) after a chronic treatment of 2-5 weeks by using two different behavioral tasks: the Fear Conditioning (FC) and the Morris water maze (MWM) tests. Tg2576 mice express the human 695-aa isoform of APP (hAPP) containing the Swedish double mutation, which favours AP production.
(§4) The MWM and the revesal_MWM test was used to evaluate spatial memory as previously described (Ricobaraza et al., 2009; Neuropsychopharmacology, 34, 1721-1732 and Ricobaraza et al., 2011, Frontiers in bioscience, 3, 1375-84). After 3 weeks of treatments, groups of animals underwent spatial reference learning and memory testing in the MWM. […] In the probe trials the platform was removed from the pool, and the percentage of time spent in the quadrant where the platform was previously set was recorded.
After a 4-weeks wash-out period of the drugs, a reversal phase of MWM was carried out. […] Memory retention was analyzed in a probe at day 6.
(§5) All trials were monitored by a camera above the center of the pool connected to a SMART-LD program (Panlab S.L., Barcelona, Spain) for subsequent analysis of escape latencies, swimming speed, path length and percent time spent in each quadrant of the pool during probe trials. […]

[4] = system: pTau; assay: pTau in the hippocampus of treated Tg2576 mice (western blot); assay type: in vivo; details: Vorinostat 12.5 mg/Kg, Tadalafil 1 mg/Kg, mean ± standard deviation
Protocol: (§6) Amyloid and Tau pathology was analyzed in the hippocampus of treated animals. Hippocampus was weighed and homogenized in 8 mass of ice-cold buffer containing a cold lysis buffer with protease inhibitors (0.2 M NaCl, 0.1 M HEPES (4-(2-hydroxyethyl)-1-piperazineethanesulfonic acid), 10% glycerol, 200 mM NaF, 2 mM Na4P2O7, 5 mM EDTA (ethylenediaminetetraacetic acid), 1 mM EGTA (ethylene glycol tetraacetic acid), 2 mM DTT (dithiothreitol), 0.5 mM PMSF (phenylmethylsulfonyl fluoride), 1 mM Na3VO4 and Complete Protease Inhibitor Cocktail, Roche Diagnostics), centrifuged at 14,000×g 4° C. for 20 min and the supernatant was aliquoted and stored at −80° C. Total protein concentrations were determined using the BioRad Bradford protein assay (BioRad Laboratories).
pTau was analyzed by western blot in the hippocampus of treated animals. […] Following two washes in TBS/Tween20 and one wash in TBS alone, immunolabelled protein bands were detected using HRP-conjugated anti-rabbit or anti-mouse antibodies (diluted 1:5,000 Santa Cruz). Binding was visualised by enhanced chemiluminescence (ECL, GE Healthcare Bioscience, Buckinghamshire, UK) and autoradiographic exposure to Hyperfilm ECL (GE Healthcare Bioscience), using Quantity One™ software v.4.6.3 (Bio-Rad) for quantification.

[5] = system: Aβ42; assay: Aβ42 levels in hippocampal extracts of treated Tg2576 mice (sandwich ELISA); assay type: in vivo; details: Vorinostat 12.5 mg/Kg, Tadalafil 1 mg/Kg, mean ± standard deviation
Protocol: as §6
Aβ42 levels in hippocampal extracts were measured with the 3D6 antibody (specific for amino acids 1-5 of Aβ; kit from Biosource, USA) using a sensitive sandwich ELISA kit from Biosource (Camarillo, Ca, USA) according to the manufacturer's instructions.

[6] = system: Tg2576 mice; assay: Fear Conditioning (FC) test, memory function in aged-Tg2576 mice; assay type: in vivo; details: Tg2576 mice (14-16 month), chronic treatment; Vorinostat 12.5 mg/kg i.p., Tadalafil 1 mg/kg p.o.; mean ± standard deviation
Protocol: as §3
The behavioural procedure of FC task involved three phases: habituation, training and testing. During habituation phase, mice were habituated to the conditioning box (context) for 5 min with no stimuli presented. 24 hours later (training phase), mice were placed in the training chamber and allowed to explore for 2 min, afterward, a footshock (0.3 mA) unconditioned stimulus was administered (2 s) and 30 s after mice were returned to their home cage.
Mice were returned to the conditioning chamber 24 h after training and allowed to explore the context for 2 min, during which freezing behavior was recorded (contextual long term memory). Freezing scores were expressed as percentages. The conditioning procedure was carried out in a StartFear system (Panlab S.L., Barcelona, Spain) that allows recording and analysis of the signal generated by the animal movement through a high sensitivity Weight Transducer system. […]

[7] = system: Tg2576 mice; assay: Morris water maze (MWM) test, memory retention in aged-Tg2576 mice; assay type: in vivo; details: Retention phase of MWM test, day 9th, Vorinostat 12.5 mg/Kg i.p., Tadalafil 1 mg/Kg p.o., mean ± standard deviation
Protocol: as §3
as §4, with “MWM. The water maze was a circular pool (diameter 1.2 m) filled with water maintained at 20° C. and made opaque by the addition of non-toxic white paint.” for “MWM.”
as §5

Compound: O=C(CCCCCCC(=O)Nc1ccccc1)NO [Vorinostat, 8-(hydroxyamino)-8-oxo-N-phenyl-octanamide]
- AcH3 increment vs basal (no treatment) ([1]; Vorinostat 50 nM alone): + (basal ×1 means no increment (+))
- AcH3 increment vs basal (no treatment) ([1]; compound alone 10 nM): + (basal ×1 means no increment (+))
- AcH3 increment vs basal (no treatment) ([1]; compound alone 100 nM): ++ (basal ×2≦(++))
- AcH3 increment vs basal (no treatment) ([1]; compound alone 500 nM): ++ (basal ×2≦(++))
- AcH3 increment vs basal (no treatment) [2]: + (basal ×1 means no increment (+))
- RMWM (% of time on right quadrant) [3]: 14.88 ± 5.88%
- pTau/tTau in hippocampus [4]: 0.56 ± 0.09
- Aβ42 levels in hippocampus [5]: 12.81 ± 4.68 pg/mg
- FC (% freezing) [6]: 51.17 ± 14.8%
- MWM (% of time on right quadrant) [7]: 16.3 ± 4.69%

Compound: CN1CC(=O)N2[C@H](c3ccc4c(c3)OCO4)c3[nH]c4ccccc4c3C[C@@H]2C1=O [Tadalafil, (6R,12aR)-6-(1,3-Benzodioxol-5-yl)-2-methyl-2,3,6,7,12,12a-hexahydropyrazino[1′,2′: 1,6]pyrido[3,4-b]indole-1,4-dione]
- AcH3 increment vs basal (no treatment) ([1]; compound alone 10 nM): + (basal ×1 means no increment (+))
- AcH3 increment vs basal (no treatment) ([1]; compound alone 100 nM): + (basal ×1 means no increment (+))
- AcH3 increment vs basal (no treatment) ([1]; compound alone 500 nM): + (basal ×1 means no increment (+))
- RMWM (% of time on right quadrant) [3]: 21.26 ± 3.40%
- pTau/tTau in hippocampus [4]: 0.32 ± 0.03
- Aβ42 levels in hippocampus [5]: 14.89 ± 5.17 pg/mg
- FC (% freezing) [6]: 41.38 ± 12.3%
- MWM (% of time on right quadrant) [7]: 23.3 ± 7.63%
